Test systems include 786-0 renal; TK-10 renal; DU-145 prostate; UACC-62 melanoma; SNB-19 CNS; SF-268 CNS; MALME-3M melanoma; NCI-H23 lung; OVCAR-4 ovarian; T-47D breast.
Assay in all cases: inhibition of tumour cell growth, NCI panel, 48 h

Experimental findings from PubChem BioAssay (NCI) are described below.

Values joined by “and” are separate entries in the source; they are usually repeats but may differ in a detail not shown here. Identical values can stand only once.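 48-hour exposure; five concentrations; linearly interpolated endpoints. GI50 is the concentration that inhibits growth by half. The concentration for full growth arrest is given as TGI.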 A value given as a limit tells only on which side of the number the result lay.

For `CC#CC#C/C=C1\C=CC2(OC=CC2OC(C)=O)O1` (stereo unspecified), the GI50 was 44.3 µM and 18.1 µM in the test with 786-0 renal; 29.1 µM in the test with OVCAR-4 ovarian. Further, the TGI with 786-0 renal was > 100 µM and 33.6 µM; in the test on TK-10 renal, > 100 µM and 59.7 µM; in the test with DU-145 prostate, 37.7 µM; with UACC-62 melanoma it was 52.3 µM and 33.2 µM; in the test on SNB-19 CNS, above 100 µM; with SF-268 CNS, 85.4 µM and 46.1 µM. For the same molecule, the TGI in the test on MALME-3M melanoma was > 100 µM and 69.8 µM; with NCI-H23 lung, 42.9 µM and 16.5 µM; with OVCAR-4 ovarian, above 100 µM; in the test on T-47D breast, 73.9 µM.
Consider `O=C1C(Br)=C(Br)C(=O)c2ccccc21`, for which the TGI in the test with 786-0 renal was 32.3 µM and 23.5 µM; in the test on TK-10 renal it was 32.4 µM and 26.6 µM; in the test with DU-145 prostate it was 33 µM; in the test with UACC-62 melanoma it was 31.6 µM and 22.7 µM; in the test on SNB-19 CNS, 37.9 µM and 17.4 µM; with SF-268 CNS, 57.7 µM and 12.9 µM. Further, the TGI in the test with MALME-3M melanoma was 31 µM and 16 µM; in the test on NCI-H23 lung, 33.5 µM and 17.6 µM; with OVCAR-4 ovarian, 31.4 µM and 33.3 µM; in the test on T-47D breast it was 12.5 µM. Moreover, the GI50 was 18.8 µM and 9.17 µM with SNB-19 CNS; 23.3 µM and 3.27 µM in the test on SF-268 CNS; 16.8 µM and 6.59 µM with MALME-3M melanoma; 17.2 µM and 6.6 µM in the test on NCI-H23 lung.
In the case of `COC1C(CO)OC(n2c3c(Cl)cccc3c3c4c(c5c6cccc(Cl)c6[nH]c5c32)C(=O)NC4=O)C(O)C1O` (stereo unspecified), the TGI in the test with 786-0 renal is 2.32 µM; in the test on TK-10 renal, 19.7 µM; in the test on DU-145 prostate, 3.29 µM; in the test on UACC-62 melanoma it was 0.257 µM; with SNB-19 CNS, above 100 µM; with SF-268 CNS, above 51.7 µM. Moreover, the TGI is 1.12 µM with MALME-3M melanoma, 2.72 µM with NCI-H23 lung, 18.3 µM with OVCAR-4 ovarian and above 21.1 µM in the test with T-47D breast.
`O=C1CCSC(=S)N1c1ccc(Br)c(Cl)c1`: the TGI with 786-0 renal is 62 µM; in the test on TK-10 renal, 78.2 µM; in the test on DU-145 prostate, above 100 µM; with UACC-62 melanoma, 58.7 µM; in the test with SNB-19 CNS, 57.6 µM; in the test with SF-268 CNS, 44.2 µM. The TGI in the test with MALME-3M melanoma was 49.8 µM; with NCI-H23 lung, above 100 µM; with OVCAR-4 ovarian it was 50.3 µM; in the test with T-47D breast, 39.5 µM.
Regarding `O=C(Nc1ccc(Oc2ccc(NC(=O)Nc3ccc([N+](=O)[O-])cc3)cc2)cc1)Nc1ccc([N+](=O)[O-])cc1`, the GI50 in the test with 786-0 renal is 3.15 µM; in the test on TK-10 renal, 2.11 µM; in the test with DU-145 prostate, 2.44 µM; in the test on UACC-62 melanoma, 1.36 µM; with SNB-19 CNS, 3.34 µM; with SF-268 CNS, 3.1 µM. The GI50 is 1.93 µM in the test with MALME-3M melanoma, 1.23 µM with NCI-H23 lung, 2.07 µM in the test with OVCAR-4 ovarian and 0.944 µM in the test on T-47D breast. Moreover, the TGI with 786-0 renal is above 36.2 µM; with TK-10 renal, above 26.7 µM; with DU-145 prostate it was above 100 µM; with UACC-62 melanoma it was 11.1 µM; with SNB-19 CNS it was above 100 µM; in the test on SF-268 CNS it was above 100 µM. Besides, the TGI was 6.81 µM in the test on MALME-3M melanoma, 30.8 µM in the test on NCI-H23 lung, above 100 µM in the test on OVCAR-4 ovarian and 6.74 µM in the test with T-47D breast.
Regarding `COc1ccc2c(c1)[nH]c(=O)c1c3cc(OC)c(OC)cc3cn21`, the GI50 in the test with 786-0 renal is 0.0386 µM; in the test with TK-10 renal it was 0.386 µM; in the test on DU-145 prostate, below 0.01 µM; in the test with UACC-62 melanoma, below 0.01 µM; in the test on SNB-19 CNS, 0.016 µM; with SF-268 CNS it was below 0.01 µM. Also, the GI50 in the test on MALME-3M melanoma is 16.6 µM; with NCI-H23 lung, below 0.0173 µM; in the test with OVCAR-4 ovarian it was 0.0384 µM; with T-47D breast, 15.4 µM. Also, the TGI came out at 15.3 µM in the test on 786-0 renal; 17.3 µM in the test with TK-10 renal; 0.0594 µM in the test with DU-145 prostate; 21 µM with UACC-62 melanoma; 22.3 µM in the test on SNB-19 CNS; 1.45 µM in the test with SF-268 CNS. In addition, the TGI came to 44.1 µM in the test with MALME-3M melanoma, 16.4 µM in the test on NCI-H23 lung, 4.72 µM in the test with OVCAR-4 ovarian and 35.6 µM in the test on T-47D breast.
Regarding `CCCCCCCCNC(C)C(O)c1ccc(SC(C)C)cc1` (stereo unspecified), the GI50 in the test on 786-0 renal is 1.73 µM; with TK-10 renal it was 1.7 µM; in the test with DU-145 prostate, 1.86 µM; with UACC-62 melanoma it was 1.53 µM; in the test with SNB-19 CNS it was 1.64 µM; with SF-268 CNS, 1.67 µM. For the same molecule, the GI50 in the test with MALME-3M melanoma was 1.98 µM; with NCI-H23 lung, 1.58 µM; in the test on OVCAR-4 ovarian it was 1.79 µM; with T-47D breast, 1.32 µM. Also, the TGI in the test on 786-0 renal amounted to 3.34 µM; in the test on TK-10 renal, 3.13 µM; in the test with DU-145 prostate, 3.27 µM; in the test with UACC-62 melanoma, 2.95 µM; in the test on SNB-19 CNS, 3.28 µM; with SF-268 CNS, 3.14 µM. Besides, the TGI in the test on MALME-3M melanoma turned out to be 3.81 µM; in the test with NCI-H23 lung, 3.13 µM; in the test with OVCAR-4 ovarian, 3.25 µM; in the test on T-47D breast it was 2.85 µM.
For `O=C1NC(=O)[C@@H](c2c[nH]c3ccccc23)[C@@H]1c1c[nH]c2ccccc12`, the GI50 with 786-0 renal, in the test with TK-10 renal, in the test with DU-145 prostate, in the test on UACC-62 melanoma, with SNB-19 CNS and in the test on SF-268 CNS was above 25 µM in each case. Also, the GI50 is above 21.8 µM with MALME-3M melanoma, above 25 µM in the test on NCI-H23 lung, above 25 µM with OVCAR-4 ovarian and above 25 µM in the test on T-47D breast. Besides, the TGI with 786-0 renal, with TK-10 renal, with DU-145 prostate, in the test with UACC-62 melanoma, in the test on SNB-19 CNS and in the test with SF-268 CNS was above 25 µM in each case. Moreover, the TGI in the test with MALME-3M melanoma, with NCI-H23 lung, in the test with OVCAR-4 ovarian and in the test with T-47D breast was above 25 µM each time.
Consider `O=C(c1nn(-c2ccc(Cl)cc2)cc1O)n1nc(C(F)(F)F)cc1-c1ccccc1`, for which the GI50 in the test on 786-0 renal is 6.39 µM; in the test on TK-10 renal it was 1.41 µM; in the test on DU-145 prostate it was 8.47 µM; in the test on UACC-62 melanoma it was 2.12 µM; in the test on SNB-19 CNS, 3.98 µM; with SF-268 CNS, 1.8 µM. Further, the GI50 in the test with MALME-3M melanoma was 12.1 µM; with NCI-H23 lung, 5.49 µM; with OVCAR-4 ovarian, 2.43 µM; in the test on T-47D breast, 4.01 µM. Also, the TGI with 786-0 renal was above 60.8 µM; in the test on TK-10 renal, above 100 µM; in the test with DU-145 prostate it was above 100 µM; in the test on UACC-62 melanoma, above 71.1 µM; in the test with SNB-19 CNS it was above 100 µM; in the test with SF-268 CNS, above 100 µM. Further, the TGI with MALME-3M melanoma, with NCI-H23 lung, in the test with OVCAR-4 ovarian and in the test with T-47D breast was above 100 µM in each case.
